For one experiment, the system named is HepG2. The experiment in a line: cells. The class given is functional. To be noted: Homo sapiens, HepG2, 72 h.
The next experiment deals with K562. The experiment in a line: cells. As to conditions: Homo sapiens, K562, 72 h. The class given is functional.
The subject of the next experiment is SW-620. The experiment in a line: cells. The class given is functional. As to conditions: Homo sapiens, SW-620, 72 h.
The test system of another experiment is COLO 205. The experiment is described as follows: cells. As to conditions: Homo sapiens, COLO 205, 72 h. The class given is functional.
The test system of a further experiment is OVCAR-3. The experiment is described as follows: cells. The class given is functional. To be noted: Homo sapiens, OVCAR-3, 72 h.
The next experiment concerns PC-3. The experiment is described as follows: cells. The class given is functional. As to conditions: Homo sapiens, PC-3, 72 h.
The target of another experiment is Histone deacetylase. The experiment is described as follows: Inhibition of HDAC in human HeLa cell nuclear extracts using Ac-Arg-Gly-Lys(Ac)-AMC substrate by fluorimetry. The class given is protein assay.
The test system of the next experiment is A549. The experiment in a line: cells. The experiment is classed as functional. To be noted: Homo sapiens, A549, 72 h.
In the next experiment the test system is MDA-MB-231. The experiment is described as follows: cells. The class given is functional. As to conditions: Homo sapiens, MDA-MB-231, 72 h.

Description for A549: Growth inhibition of human A549 cells after 72 hrs by MTT assay
Description for COLO 205: Growth inhibition of human COLO205 cells after 72 hrs by MTS assay
Description for HepG2: Growth inhibition of human HepG2 cells after 72 hrs by MTT assay
Description for K562: Growth inhibition of human K562 cells after 72 hrs by MTS assay
Description for MDA-MB-231: Growth inhibition of human MDA-MB-231 cells after 72 hrs by MTT assay
Description for OVCAR-3: Growth inhibition of human OVCAR3 cells after 72 hrs by MTS assay
Description for PC-3: Growth inhibition of human PC3 cells after 72 hrs by MTS assay
Description for SW-620: Growth inhibition of human SW620 cells after 72 hrs by MTS assay

As a reminder, the GI50 is the concentration giving 50% growth inhibition. The term IC50 denotes the concentration that gives 50% inhibition. Low readings indicate inhibition by little substance, high ones a need for much substance. On to `O=C(/C=C/c1cn(C/C=C/c2ccccc2)nn1)NO`, for which the GI50 worked out at 3200 nM in the experiment on HepG2; 550 nM in the experiment with K562; 480 nM in the experiment on SW-620; 1100 nM in the experiment with COLO 205; 1100 nM with OVCAR-3; 1300 nM in the experiment on PC-3. The GI50 in the experiment with A549 was found to be 1900 nM. Also, the IC50 on Histone deacetylase was found to be 104 nM.
As to `O=C(/C=C/c1cn(C(Cc2ccccc2)c2nc3ccccc3o2)nn1)NO` (racemic), the GI50 in the experiment with HepG2 was found to be 5900 nM; in the experiment on MDA-MB-231 it was 5500 nM; in the experiment on A549, 4400 nM. This compound registered an IC50 against Histone deacetylase of 219 nM.
Taken in the same sequence, the figures for `CC(C)CC(c1nc2ccccc2o1)n1cc(/C=C/C(=O)NO)nn1` (racemic) were 2200 nM, 280 nM, 660 nM and 19 nM.
Turning to `O=C(/C=C/c1cn(Cc2nc3ccccc3[nH]2)nn1)NO`, the GI50 with HepG2 and in the experiment on A549 was > 20000 nM each time. Moreover, the IC50 against Histone deacetylase was determined as 178 nM.
On to `O=C(O)CC(c1nc2ccccc2o1)n1cc(/C=C/C(=O)NO)nn1` (racemic), for which the concentration for 50% growth inhibition (GI50) with HepG2, in the experiment with MDA-MB-231 and in the experiment on A549 was > 20000 nM throughout. The compound also showed an IC50 at Histone deacetylase of 140 nM.
In the case of `O=C(O)CCC(c1nc2ccccc2o1)n1cc(/C=C/C(=O)NO)nn1` (racemic), the GI50 in the experiment with HepG2, with MDA-MB-231 and in the experiment with A549 was > 20000 nM in each case. The concentration for half-maximal inhibition (IC50) against Histone deacetylase stood at 333 nM.

(Values after ChEMBL document CHEMBL2034936, “Discovery and extensive in vitro evaluations of NK-HDAC-1: a chiral histone deacetylase inhibitor as a promising lead” (J Med Chem, 2012).)
